# Measured values published in US7964559B2, “MVL, an antiviral protein from a cyanobacterium” (The United States of America, as represented by the …, priority 2004, dated 2011).
# Entries after “also recorded” stand apart in the source; their conditions may differ. Like-named read-outs stand apart in the source and are kept apart here.
# Assays:
# [1] = target: T1, MVL (Microcystis viridis, UniProt Q9RHG4); assay type: binding; details: for Binding to MVL: Table 1, MVL binding studies
# [2] = target: T1, MVL; assay type: binding; details: for Stoichiometry: carbohydrates per MVL monomer, 10 mM Tris pH 6.5; for ΔG: ΔG = −RT · lnKA, T = 298 K
# [3] = target: T1, MVL; assay type: cell-based
# [4] = test system: M-tropic virus SF162 and a T-tropic virus (LAV); experiment: Single round HIV-infectivity assay; assay type: cell-based; details: read-out: approximate IC50, HIV infectivity
# [5] = test system: HIV-1 T-cell tropic (T-tropic) strain LAV; details: read-out: IC50, inhibition of Env-mediated fusion
# [6] = test system: HIV-1 macrophage tropic (M-tropic) strain SF162; details: read-out: IC50, inhibition of Env-mediated fusion
# [7] = excess carbohydrate, pH 6.85, 27° C.
molecule,measurement,setting,value
"CC(=O)N[C@H]1[C@H](O[C@H]2[C@H](O)[C@@H](NC(C)=O)C(O)O[C@@H]2CO)O[C@H](CO)[C@@H](O)[C@@H]1O (stereo partly shown) [GlcNAcβ(1→4) GlcNAc, GlcNAcβ(1→4)GlcNAc]",binding to MVL / change of 1H-15N correlation spectra of MVL,[1]; [7],nor do they bind
same,binding to MVL / change of 1H-15N correlation spectra of MVL,"[1]; excess carbohydrate, pH 6.85, 27° C., listed as GlcNAc2",identical to that of free MVL
CC(=O)N[C@H]1C(O)O[C@H](CO)[C@@H](O[C@@H]2O[C@H](CO)[C@@H](O)[C@H](O)[C@@H]2O)[C@@H]1O (stereo partly shown) [Manβ(1→4)GlcNAc],binding to MVL / change of 1H-15N correlation spectra of MVL,[1]; pH 6.85,nor do they bind
"CC(=O)N[C@H]1[C@H](O[C@H]2[C@H](O)[C@@H](NC(C)=O)C(O)O[C@@H]2CO)O[C@H](CO)[C@@H](O[C@@H]2O[C@H](CO[C@H]3O[C@H](CO)[C@@H](O)[C@H](O)[C@@H]3O)[C@@H](O)[C@H](O)[C@@H]2O)[C@@H]1O (stereo partly shown) [oligomannose-2A, Manα(1→6)Manβ(1→4)GlcNAcβ(1→4)GlcNAc]",Binding to MVL,[1],3
same,binding to MVL / change of 1H-15N correlation spectra of MVL,[1]; [7],binds with high affinity
same,ΔH,"[2]; 25° C., pH 6.5",-10.5 ± 0.04 kcal/mol
same,Stoichiometry,"[2]; one site model, 25° C., listed as Man2A",2.04 ± 0.05
same,Stoichiometry,"[2]; one site model, 25° C., listed as Man2GlcNAc2",two
same,ΔG,[2],-7.4 ± 0.6 kcal/mol
"CC(=O)N[C@H]1[C@H](O[C@H]2[C@H](O)[C@@H](NC(C)=O)C(O)O[C@@H]2CO)O[C@H](CO)[C@@H](O[C@@H]2O[C@H](CO[C@H]3O[C@H](CO[C@H]4O[C@H](CO)[C@@H](O)[C@H](O)[C@@H]4O)[C@@H](O)[C@H](O[C@H]4O[C@H](CO)[C@@H](O)[C@H](O)[C@@H]4O)[C@@H]3O)[C@@H](O)[C@H](O[C@H]3O[C@H](CO)[C@@H](O)[C@H](O)[C@@H]3O)[C@@H]2O)[C@@H]1O (stereo partly shown) [oligomannose-5, Man5GlcNAc2]",Binding to MVL,[1],3
Man6GlcNAc2 [oligomannose-6],lifetime of the MVL:carbohydrate complex,[1]; (2πΔδ)^−1 from chemical shift differences,> 16 ms
same,Binding to MVL,[1],3
same,binding to MVL / change of 1H-15N correlation spectra of MVL,[1]; [7],dramatic changes
same,ΔH,"[2]; 25° C., pH 6.5",-20.8 ± 0.1 kcal/mol
same,Stoichiometry,"[2]; one site model, 25° C., listed as Man6",2.06 ± 0.01
same,Stoichiometry,"[2]; one site model, 25° C., listed as Man6GlcNAc2",two
same,Ka,"[2]; equilibrium association constant, one site model, 25° C., pH 6.5",4.5 (±0.3)×10^6 M^−1
same,ΔG,[2],-9.0 ± 0.6 kcal/mol
Man9GlcNAc2 [oligomannose-9],Binding to MVL,[1],3
same,effect of pretreatment of MVL on inhibition of fusion by MVL,"[3]; MVL 200 nM, 5-fold excess of carbohydrate",partially reduced inhibition
Manα (1→3)[Manα(1→6)]Manβ [Manα(1→3)[Manα(1→6)]Man],binding to MVL / change of 1H-15N correlation spectra of MVL,[1]; pH 6.85,identical to that of free MVL; also recorded: nor do they bind
same,effect of pretreatment of MVL on inhibition of fusion by MVL,[3],no effect
"MVL: 113 amino acid, 13 kDa carbohydrate binding protein (lectin) from Microcystis viridis NIES-102, SEQ ID NO: 3 (protein, listed as Microcystis viridis) ASYKVNIPAGPLWSNAEAQQVGPKIAAAHQGNFTGQWTTVVESAMSVVEVELQVENTGIHEFKTDVLAGPLWSNDEAQKLGPQIAASYGAEFTGQWRTIVEGVMSVIQIKYTF",IC50,[4],30 to 50 nM
same,IC50,[5],30 ± 4 nM
same,IC50,[6],37 ± 6 nM
